Source: patent US20040005648A1, “PYK2 related products and methods” (Sugen, Inc., priority 1994, published 2004)

Test system: PYK-2
Assay: Tyrosine phosphorylation of PYK-2 in NIH3T3 cell lines that overexpress PYK-2
Format: cell-based, mouse
Conditions: NIH3T3 cells overexpressing PYK-2 / PYK-2-HA; TPA 6 μM, 15 min at 37° C.
Description: Stable cell lines of NIH3T3 that overexpress PYK2 were established by contransfection of PYK2 subcloned into pLSV together with pSV2neo utilizing lipofectamine reagent (GIBCO BRL). Following transfection the cells were grown in Dulbecco's modified Eagle's medium containing 10% fetal bovine serum and 1 mg/ml G418. Transient transfections into 293 cells were performed by using the calcium phosphate technique (*).
The PYK-2 cDNA cloned in PLSV was cotransfected with pSV2neo into PC12 cells and NIH3T3 in order to establish stable cell lines. G418 resistant colonies were screened by immunoprecipitating and immunoblotting.
NIH3T3 cell lines were established that overexpress the PYK-2 and the PYK-2-HA protein. […] The level of phosphorylation is not so high.

## CCCCCCCCCCCCCC(=O)O[C@@H]1[C@@H](C)[C@@]2(O)[C@@H](C=C(CO)C[C@]3(O)C(=O)C(C)=C[C@@H]23)[C@@H]2C(C)(C)[C@]12OC(C)=O [PMA, phorbol 12-myristate 13-acetate]
  tyrosine phosphorylation of PYK-2 in response to the agent: stronger effect
